Assay results from patent US20220016092A1, “METHODS FOR TREATING SYMPTOMS AND DISORDERS ASSOCIATED WITH LYSOSOMAL STORAGE DISEASES” (GENZYME CORPORATION, priority 2019, published 2022).
“And” between values parts separate entries of the source, which are not always exact repeats. Equal entries are not always repeated.

Experiments:
Assay type in all cases: in vivo, human
[1] = system: adult male Fabry patients; assay: Clinical study in Fabry disease patients: SF-36 bodily pain and abdominal pain; conditions: 15 mg/day oral
Procedure: A three-year open-label investigation of Compound 2 in young classic Fabry disease patients was conducted in order to evaluate the long-term safety, pharmacodynamics and exploratory efficacy of Compound 2 in adult male Fabry patients. Eleven subjects enrolled in the study, and seven subjects completed all aspects of the study. All subjects were males diagnosed with classic Fabry disease confirmed by genotype and residual alpha-galactosidase activity below detection levels (9 of the 11 had nonsense mutation in the GLA gene). All subjects had lyso-GL3 levels in plasma of at least 65 ng/mL and had no prior Fabry disease-specific treatment. The median age of subject was 24 years (range 19-37).
Each sample was scored independently by 3 pathologists for the presence of GL-3 inclusions on a four-point scale, and rated as 0 (no/trace), 1 (mild), 2 (moderate), or 3 (severe) according to Eng et al., N. Engl. J. Med. 345:9-16 (2001). A single score per patient per time point was derived by taking the score rated by the majority of the three pathologists. If a majority score could not be derived, then the median score was used (resulting in some fractional scores). Plasma samples were also analyzed for GL-3, lyso-GL-3, GL-1 and GM3 at baseline and weeks 12, 26, 52 and 156. […]
Patients were assessed using the Short Form-36 (SF-36) questionnaire on numerous visits from baseline to week 156. This is a 36-item questionnaire used to measure 8 various aspects of health (vitality, physical functioning, bodily pain, general health perceptions, physical role functioning, emotional role functioning, social role functioning and mental health). The score for each of the eight aspects ranges from 0 (maximum disability) to 100 (no disability), and thus, higher scores indicate good health condition. In addition, gastrointestinal symptoms, including abdominal pain, abdominal distention, and bowl movements, were assessed using a modified version of the inflammatory bowel severity scoring system. Particular questions asked as part of these assessments included: (1) whether the patient suffered abdominal pain within the last ten days, (2) what was the severity of abdominal pain suffered in the last ten days using a 0 (no pain) to 100 (very severe pain) scale, and (3) on how many days within the last ten days did the patient have abdominal pain.

[2] = system: adult patients with Gaucher disease Type 3; assay: Clinical study in GD-3 patients: horizontal and vertical saccadic eye movements; conditions: 15 mg/day + imiglucerase
Procedure: (§1) During the study patients were evaluated for safety and tolerability, CSF and plasma biomarkers (glucosylceramide, GL-1; glucosylsphingosine, lyso-GL1), pharmacokinetics, markers for systemic disease (spleen and liver volume measured by magnetic resonance imaging (MRI), platelet count, hemoglobin levels), indicia of interstitial lung disease (high resolution pulmonary computed tomography (CT)), and horizontal saccadic eye movement.
Quantification of horizontal and vertical saccadic eye movements (HSEM and VSEM, respectively) was performed in all 5 patients. In the five patients, mean peak velocity (PV) of horizontal rightward 15° saccades was 50.8°/s (+/−8.1°/s) at baseline and […] (+/−12.6°/s) at Week 26; and the mean PV of horizontal leftward 15° saccades was 44.7° /s (+/−17.9°/s) at baseline and 32.3°/s (+/−15.9°/s) at Week 26. A slower velocity implies a more significant degree of neurological impairment. The mean PV of horizontal rightward 30° saccades was 77.7°/s (+/−16.4°/s) at baseline and […] (+/−24.7°/s) at Week 26; and the mean PV of horizontal leftward 30° saccades was 58.7°/s (+/−21.5°/s) at baseline and 49.9°/s (+/−8.5°/s) at Week 26. The normal range for […] horizontal saccades has previously been reported as >200°/s and >400°/s (Bremova-Ertl et al, 2018). […] As with HSEM, VSEM measurements were stable between baseline and week 26.
At 52 weeks, quantification of horizontal and vertical saccadic eye movements was performed in all six patients in a similar manner as described in section (A). However, it was determined that the methodology used to account for noise (e.g., caused by blinking or head movements) may have introduced bias into the results. The method of accounting for noise was therefore modified, and a set of control criteria were developed to assess validity of the datasets obtained by the eye movement reader.

[3] = system: glucosylceramide (GL-1) and glucosylsphingosine (lyso-GL1) in CSF and plasma; assay: Clinical study in GD-3 patients: GL-1 and lyso-GL-1 in CSF and plasma; conditions: 15 mg/day + imiglucerase; for GL-1 in CSF, percent change from baseline, Mean (n = 4) / Lyso-GL1 in CSF, percent change from baseline, Mean (n = 4): excludes Patient 5
Procedure: as §1
At baseline, the mean (±SD) GL-1 concentration in CSF was 7.1±2.8 ng/mL (range 4.4-11.1 ng/mL), while the mean (±SD) lyso-GL-1 concentration in CSF was 39.3±22.9 pg/mL (range 20.1-67.6 pg/mL). For comparison, the healthy GL-1 concentration in CSF is 4.5-5.9 ng/mL, and the healthy level of lyso-GL-1 in CSF is less than 5.0 pg/mL. […]

[4] = system: adult patients with Gaucher disease Type 3; assay: Clinical study in GD-3 patients: safety and tolerability; conditions: 15 mg/day + imiglucerase
Procedure: as §1

[5] = 4 weeks, individual Patients 1-5
[6] = 26 weeks, individual Patients 1-5 (Patient 5 reduced exposure)

With `CC(C)(NC(=O)O[C@@H]1CN2CCC1CC2)c1csc(-c2ccc(F)cc2)n1` [Compound 2, (S)-quinuclidin-3-yl 2-(2-(4-fluorophenyl)thiazol-4-yl)propan-2-ylcarbamate] the “Number of Patients Reporting Yes to Abdominal Pain in 10-Days Preceding Visit” value (from here on “Number of Patients Reporting Yes”) ([1]; 4 weeks) was 4/11, the “Abdominal Pain Severity Score in 10-Days Preceding Visit (mean value, 0-100 scale)” value (“Abdominal Pain Severity Score” for short) ([1]; 4 weeks (n = 4)) was 29.75 and the “Number of Days within Preceding 10 Days with Abdominal Pain (mean value)” value (from here on “Number of Days within Preceding 10 Days”) ([1]; 4 weeks (n = 4)) was 2.50. The “Number of Patients Reporting Yes” value ([1]; 12 weeks) was 2/10, the “Abdominal Pain Severity Score” value ([1]; 12 weeks (n = 2)) was 40.00 and the “Number of Days within Preceding 10 Days” value ([1]; 12 weeks (n = 2)) was 3.50. For the same compound, the “Number of Patients Reporting Yes” value ([1]; 26 weeks) was 3/9, the “Abdominal Pain Severity Score” value ([1]; 26 weeks (n = 3)) was 31.33 and the “Number of Days within Preceding 10 Days” value ([1]; 26 weeks (n = 3)) was 3.00. The “Number of Patients Reporting Yes” value ([1]; 52 weeks) was 2/7, the “Abdominal Pain Severity Score” value ([1]; 52 weeks (n = 1)) was 21.00 and the “Number of Days within Preceding 10 Days” value ([1]; 52 weeks (n = 3)) was 0.70. The “Number of Patients Reporting Yes” value ([1]; 104 weeks) was 2/7, the “Abdominal Pain Severity Score” value ([1]; 104 weeks (n = 1)) was 21.00 and the “Number of Patients Reporting Yes” value ([1]; 156 weeks) was 2/7. The “Abdominal Pain Severity Score” value ([1]; 156 weeks (n = 2)) was 15.00, the “Number of Days within Preceding 10 Days” value ([1]; 156 weeks (n = 2)) was 0.20 and the “Patients with decreased severity of abdominal pain, among those with gastrointestinal pain at baseline” value ([1]; week 26) was “four out of five”. For the same compound, the “Patients with improved overall bodily pain scores (SF-36)” value ([1]; week 26) was “Seven of nine”, the “Patients with reduced number of days with gastrointestinal pain” value ([1]; week 26) was “five of five” and the “Patients with decreased severity of abdominal pain, among those with gastrointestinal pain at baseline” value ([1]; week 156) was “four out of four”. The “Patients with improved overall bodily pain scores (SF-36)” value ([1]; week 156) was “three of six”, the “Patients with reduced number of days with gastrointestinal pain” value ([1]; week 156) was “three of four” and the “Changes in HSEM” value ([2]; 26-week treatment period) was “no clinically meaningful changes in HSEM”. For the same compound, the “Mean peak velocity of horizontal leftward 15° saccades” value ([2]; Week 26, five patients) was 32.3 °/s, the “Mean peak velocity of horizontal leftward 30° saccades” value ([2]; Week 26, five patients) was 49.9 °/s and the VSEM measurements ([2]; between baseline and week 26) was “stable”. For the same compound, the “GL-1 in CSF, percent change from baseline, Mean (n = 4)” value ([3]; 4 weeks) was −64%, the “Lyso-GL1 in CSF, percent change from baseline, Mean (n = 4)” value ([3]; 4 weeks) was −32% and the “GL-1 in CSF, percent change from baseline” value [3, 5] was −86% and −55% and −53% and −62% and −36%. The “Lyso-GL1 in CSF, percent change from baseline” value [3, 5] was −38% and −16% and −34% and −39% and −11%, the “GL-1 in CSF, percent change from baseline, Mean (n = 4)” value ([3]; 26 weeks) was −75% and the “Lyso-GL1 in CSF, percent change from baseline, Mean (n = 4)” value ([3]; 26 weeks) was −48%. The “GL-1 in CSF, percent change from baseline” value [3, 6] was −86% and −78% (2×) and −58% and +4%, the “Lyso-GL1 in CSF, percent change from baseline” value [3, 6] was −52% and −42% and −41% and −57% and +94% and the Treatment-emergent adverse events ([4]; 26 weeks, all 5 patients) was “no serious or lasting treatment-emergent adverse events”. The “Severity and relatedness of treatment-emergent adverse events” value ([4]; 52 weeks, six patients) was “mild or moderate in severity, and none of which were considered related to treatment with Compound 2 or imiglucerase” and the “Total treatment-emergent adverse events reported” value ([4]; 52 weeks, six patients) was 30.
